Assay results published in US10517889B2, “Modulators of SMAD7 expression” (Ionis Pharmaceuticals, Inc., priority 2017, dated 2019).
Strand notation (5' to 3'): a small letter for the sugar, then the base; units joined by * are phosphorothioate-linked, units joined directly phosphodiester-linked; [ ] holds rarer units or linkages, { } end groups; capitals alone tell only the bases. e = 2'-O-(2-methoxyethyl) (MOE); [5mC] = 5-methylcytosine; d = 2'-deoxy (DNA)

system: human SMAD7 mRNA; assay: Antisense inhibition of human SMAD7 mRNA expression in Hep3B cells by 5-10-5 MOE gapmers, single concentration, electroporation, RT-PCR (Example 1, Study 1 and 2); assay type: cell-based; details: Study 2, electroporation with 15,000 nM antisense oligonucleotide, 5-10-5 MOE gapmers targeting SEQ ID NO: 1 and 2
Method in brief: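 Hep3B cells (20,000/well) electroporated with 5-10-5 MOE gapmer at 5,000 nM or 15,000 nM for approximately 24 h. SMAD7 mRNA quantified by real-time PCR with primer probe set RTS5062 and normalized to RIBOGREEN total RNA. Values are percent inhibition relative to untreated controls.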

Row | Substance | % inhibition of SMAD7 mRNA expression
1 | 771638 (antisense eT*eA*eG*eG*eA*dT*dG*dG*dT*dA*d[5mC]*d[5mC]*dT*dT*dG*eG*eG*eT*eT*eA) [compound 771638] | 41%
2 | 771639 (antisense e[5mC]*eA*eG*e[5mC]*e[5mC]*dT*dA*dG*dG*dA*dT*dG*dG*dT*dA*e[5mC]*e[5mC]*eT*eT*eG) [compound 771639] | 51%
3 | 771644 (antisense eG*eA*eA*eG*eA*dA*dA*dT*dG*dA*dA*dA*dG*dA*dA*eG*eA*eG*eT*eT) [compound 771644] | 0%
4 | 771646 (antisense eT*eA*eT*eG*eA*dG*dT*dT*dG*dT*dA*dG*dA*dA*dG*eA*eA*eA*eT*eG) [compound 771646] | 0%
5 | 771647 (antisense eG*eA*eG*eT*eG*dT*dA*dT*dG*dA*dG*dT*dT*dG*dT*eA*eG*eA*eA*eG) [compound 771647] | 6%
6 | 771652 (antisense eA*eT*eT*eG*eA*dG*d[5mC]*dT*dA*dA*dG*dA*dA*d[5mC]*dA*eG*eT*eG*eT*e[5mC]) [compound 771652] | 0%
7 | 771654 (antisense eA*eA*eA*e[5mC]*eA*dT*dG*d[5mC]*dT*d[5mC]*dA*dT*dT*dG*dA*eG*e[5mC]*eT*eA*eA) [compound 771654] | 32%
8 | 771655 (antisense eA*eG*eT*e[5mC]*eT*dA*dA*dA*d[5mC]*dA*dT*dG*d[5mC]*dT*d[5mC]*eA*eT*eT*eG*eA) [compound 771655] | 14%
9 | 771660 (antisense eT*eT*e[5mC]*eT*e[5mC]*dT*dT*dG*dT*dT*d[5mC]*dA*dT*dT*dT*eA*eA*eA*e[5mC]*e[5mC]) [compound 771660] | 0%
10 | 771662 (antisense eA*eT*eG*eA*eG*dA*dA*dT*dG*d[5mC]*dT*dT*d[5mC]*dT*d[5mC]*eT*eT*eG*eT*eT) [compound 771662] | 29%
11 | 771668 (antisense e[5mC]*eT*e[5mC]*eT*e[5mC]*dA*dA*dA*dG*d[5mC]*dA*d[5mC]*dT*dA*d[5mC]*eA*eA*eT*eG*e[5mC]) [compound 771668] | 9%
12 | 771676 (antisense eT*eG*eT*eT*eT*dA*dT*dA*d[5mC]*dA*d[5mC]*dA*dT*dT*dG*e[5mC]*eA*e[5mC]*eA*eA) [compound 771676] | 2%
13 | 771678 (antisense eT*eT*eA*eT*eT*dT*dT*dT*d[5mC]*dT*dT*dG*dT*dT*dT*eA*eT*eA*e[5mC]*eA) [compound 771678] | 0%
14 | 771679 (antisense eG*e[5mC]*eA*eT*e[5mC]*dT*dT*dT*dT*d[5mC]*dT*dT*dT*dA*dT*eT*eT*eT*eT*e[5mC]) [compound 771679] | 0%

same assay, conditions: electroporation with 15,000 nM antisense oligonucleotide (Study 2), 5-10-5 MOE gapmers targeting SEQ ID NO: 1 and 2

Row | Substance | % Inhibition of SMAD7 mRNA | % inhibition of SMAD7 mRNA expression
15 | 771640 (antisense eG*eG*eT*eG*eT*d[5mC]*dA*dG*d[5mC]*d[5mC]*dT*dA*dG*dG*dA*eT*eG*eG*eT*eA) [compound 771640] | 35% | 0%
16 | 771642 (antisense eA*eG*eA*eA*eG*dA*dG*dT*dT*dA*dG*dG*dT*dG*dT*e[5mC]*eA*eG*e[5mC]*e[5mC]) [compound 771642] | – | 36%
17 | 771648 (antisense e[5mC]*eA*eT*eA*e[5mC]*dG*dA*dG*dT*dG*dT*dA*dT*dG*dA*eG*eT*eT*eG*eT) [compound 771648] | 17% | 0%
18 | 771649 (antisense eA*eA*eG*eT*eA*dT*d[5mC]*dA*dT*dA*d[5mC]*dG*dA*dG*dT*eG*eT*eA*eT*eG) [compound 771649] | – | 0%
19 | 771650 (antisense eG*eA*eA*eG*eT*dA*dT*d[5mC]*dA*dT*dA*d[5mC]*dG*dA*dG*eT*eG*eT*eA*eT) [compound 771650] | – | 24%
20 | 771656 (antisense eG*eT*eT*eA*eA*dA*dG*dT*d[5mC]*dT*dA*dA*dA*d[5mC]*dA*eT*eG*e[5mC]*eT*e[5mC]) [compound 771656] | 35% | 0%
21 | 771657 (antisense e[5mC]*eT*eT*eA*eT*dG*dT*dT*dA*dA*dA*dG*dT*d[5mC]*dT*eA*eA*eA*e[5mC]*eA) [compound 771657] | – | 6%
22 | 771658 (antisense eA*eA*eT*eA*eG*d[5mC]*dT*dT*dA*dT*dG*dT*dT*dA*dA*eA*eG*eT*e[5mC]*eT) [compound 771658] | – | 33%
23 | 771664 (antisense eT*eA*eA*eA*eT*dT*dT*d[5mC]*d[5mC]*dA*dA*dT*dG*dA*dG*eA*eA*eT*eG*e[5mC]) [compound 771664] | 25% | 5%
24 | 771665 (antisense eA*eA*eT*eG*e[5mC]*dT*dA*dA*dA*dT*dT*dT*d[5mC]*d[5mC]*dA*eA*eT*eG*eA*eG) [compound 771665] | – | 24%
25 | 771666 (antisense eA*e[5mC]*eT*eA*e[5mC]*dA*dA*dT*dG*d[5mC]*dT*dA*dA*dA*dT*eT*eT*e[5mC]*e[5mC]*eA) [compound 771666] | – | 39%
26 | 771672 (antisense eT*eT*eT*eT*eT*dT*d[5mC]*dA*dG*dG*dA*dG*dT*d[5mC]*d[5mC]*eT*eT*eT*e[5mC]*eT) [compound 771672] | 30% | 2%
27 | 771673 (antisense eA*eG*eG*eT*eT*dT*dT*dT*dT*dT*dT*d[5mC]*dA*dG*dG*eA*eG*eT*e[5mC]*e[5mC]) [compound 771673] | – | 44%
28 | 771674 (antisense eA*eT*eA*eA*eA*dT*d[5mC]*dT*d[5mC]*dA*dG*dG*dT*dT*dT*eT*eT*eT*eT*eT) [compound 771674] | – | 0%
29 | 771680 (antisense eA*eT*eT*eT*eA*dT*dA*dT*dT*dA*dA*dA*dG*d[5mC]*dA*eA*eA*eG*eT*eG) [compound 771680] | 0% | 0%
30 | 771681 (antisense eT*eT*eT*eG*e[5mC]*dA*dT*dT*dT*dA*dT*dA*dT*dT*dA*eA*eA*eG*e[5mC]*eA) [compound 771681] | – | 0%

same assay, conditions: electroporation, 15,000 nM, approximately 24 hours, relative to untreated control cells, gapmers targeting SEQ ID NO: 1 and 2

Row | Substance | % inhibition of SMAD7 mRNA expression
31 | 771637 (antisense eT*eG*eG*eT*eA*d[5mC]*d[5mC]*dT*dT*dG*dG*dG*dT*dT*dA*eT*eG*eA*e[5mC]*eG) [compound 771637] | 23%
32 | 771645 (antisense eG*eT*eT*eG*eT*dA*dG*dA*dA*dG*dA*dA*dA*dT*dG*eA*eA*eA*eG*eA) [compound 771645] | 38%
33 | 771653 (antisense eT*eG*e[5mC]*eT*e[5mC]*dA*dT*dT*dG*dA*dG*d[5mC]*dT*dA*dA*eG*eA*eA*e[5mC]*eA) [compound 771653] | 33%
34 | 771669 (antisense eT*eT*eT*e[5mC]*eT*d[5mC]*dT*d[5mC]*dT*d[5mC]*dA*dA*dA*dG*d[5mC]*eA*e[5mC]*eT*eA*e[5mC]) [compound 771669] | 55%
35 | 771677 (antisense eT*eT*eT*e[5mC]*eT*dT*dG*dT*dT*dT*dA*dT*dA*d[5mC]*dA*e[5mC]*eA*eT*eT*eG) [compound 771677] | 21%
